Test: clinical
Details: human, in vivo

| SMILES | CL renal [mL/min/kg] |
| --- | --- |
| CO[C@H]1/C=C/O[C@@]2(C)Oc3c(C)c(O)c4c(c3C2=O)C2=NC3(CCN(CC(C)C)CC3)NC2=C(NC(=O)/C(C)=C\C=C\[C@H](C)[C@H](O)[C@@H](C)[C@@H](O)[C@@H](C)[C@H](OC(C)=O)[C@@H]1C)C4=O [RIFABUTIN] | 0.4 |
| Nc1ccn([C@@H]2O[C@H](CO)[C@@H](O)C2(F)F)c(=O)n1 [GEMCITABINE] | 3.2 |
| Cc1onc(-c2ccccc2)c1C(=O)N[C@@H]1C(=O)N2[C@@H]1SC(C)(C)[C@@H]2C(=O)O [OXACILLIN] | 2.6 |
| CC(C(=O)O)c1ccc(C(=O)c2cccs2)cc1 (stereo not drawn) [SUPROFEN] | 0.04 |
| CS(=O)(=O)OCCCCOS(C)(=O)=O [BUSULFAN] | 0.2 |
| Cc1ccccc1N1C(=O)c2cc(S(N)(=O)=O)c(Cl)cc2NC1C (stereo not drawn) [METOLAZONE] | 1.12 |
| CNCC[C@@H](Oc1ccccc1C)c1ccccc1 [ATOMOXETINE] | 0.28 |
| CC(=O)O[C@H]1C(=O)[C@@]2(C)[C@H]([C@H](OC(=O)c3ccccc3)[C@]3(O)C[C@H](OC(=O)[C@H](O)[C@@H](NC(=O)c4ccccc4)c4ccccc4)C(C)=C1C3(C)C)[C@]1(OC(C)=O)CO[C@@H]1C[C@@H]2O [PACLITAXEL] | 0.64 |
| CN(C)c1cc(NC(=O)CNC(C)(C)C)c(O)c2c1C[C@H]1C[C@H]3[C@H](N(C)C)C(O)=C(C(N)=O)C(=O)[C@@]3(O)C(O)=C1C2=O [TIGECYCLINE] | 0.57 |
| CC(C)(C)NCC(O)COc1cccc2c1CC(O)C(O)C2 (stereo not drawn) [NADOLOL] | 1.8 |
| OCCN1CCN(CCCN2c3ccccc3Sc3ccc(Cl)cc32)CC1 [PERPHENAZINE] | 5 |
| O=P1(NCCCl)OCCCN1CCCl (stereo not drawn) [IFOSFAMIDE] | 0.58 |
| Cc1cccc(C)c1OCC(C)N (stereo not drawn) [MEXILETINE] | 0.83 |
| CCC(CC)O[C@@H]1C=C(C(=O)O)C[C@H](N)[C@H]1NC(C)=O [OSELTAMIVIR CARBOXYLATE] | 4.46 |
| O=C(c1ccccc1)c1ccc2n1CCC2C(=O)O (stereo not drawn) [KETOROLAC] | 0.2 |
| Nc1ncnc2c1ncn2CCOCP(=O)(O)O [ADEFOVIR] | 3.33 |
| Oc1ccc2c(c1)[C@@]13CCCC[C@@]1(O)[C@@H](C2)N(CC1CCC1)CC3 [BUTORPHANOL] | 2.05 |
| COc1ccc2c3c1O[C@H]1C[C@@H](O)C=C[C@@]31CCN(C)C2 [GALANTAMINE] | 1.57 |
| COCCc1ccc(OCC(O)CNC(C)C)cc1 (stereo not drawn) [METOPROLOL] | 0.65 |
| Nc1nc(O)c2ncn(COC(CO)CO)c2n1 [GANCICLOVIR] | 4.14 |
| CCN1CCC[C@H]1CNC(=O)c1c(OC)ccc(Br)c1OC [REMOXIPRIDE] | 0.44 |

| SMILES | CL renal [mL/min/kg] |
| --- | --- |
| CCOc1ccccc1OCCN[C@H](C)Cc1ccc(OC)c(S(N)(=O)=O)c1 [TAMSULOSIN] | 0.08 |
| COc1ccc([C@@H]2Sc3ccccc3N(CCN(C)C)C(=O)[C@@H]2OC(C)=O)cc1 [DILTIAZEM] | 9.23 |
| CC(C)(C)NCC(O)c1cc(O)cc(O)c1 (stereo not drawn) [TERBUTALINE] | 2.2 |
| CCOC(=O)c1ncn2c1CN(C)C(=O)c1cc(F)ccc1-2 [FLUMAZENIL] | 0.03 |
| CCCC(C)C1(CC)C(=O)NC(=S)NC1=O (stereo not drawn) [THIOPENTAL] | 0.08 |
| CN(C)CCc1c[nH]c2ccc(CS(=O)(=O)N3CCCC3)cc12 [ALMOTRIPTAN] | 5.79 |
| CCCc1cc(=O)[nH]c(=S)[nH]1 [PROPYLTHIOURACIL] | 0.04 |
| C[C@H]1COc2c(N3CCN(C)CC3)c(F)cc3c(=O)c(C(=O)O)cn1c23.C[C@H]1COc2c(N3CCN(C)CC3)c(F)cc3c(=O)c(C(=O)O)cn1c23.O [LEVOFLOXACIN] | 1.41 |
| COc1ccc(CCNCC(O)COc2cccc(C)c2)cc1OC (stereo not drawn) [BEVANTOLOL] | 0.06 |
| CC(C)(O/N=C(\C(=O)N[C@@H]1C(=O)N2C(C(=O)[O-])=C(C[n+]3ccccc3)CS[C@H]12)c1csc(N)n1)C(=O)O [CEFTAZIDIME] | 2.13 |
| CN[C@H](CC(C)C)C(=O)N[C@H]1C(=O)N[C@@H](CC(N)=O)C(=O)N[C@H]2C(=O)N[C@H]3C(=O)N[C@H](C(=O)N[C@H](C(=O)O)c4cc(O)cc(O)c4-c4cc3ccc4O)[C@H](O)c3ccc(c(Cl)c3)Oc3cc2cc(c3O[C@@H]2O[C@H](CO)[C@@H](O)[C@H](O)[C@H]2O[C@H]2C[C@](C)(N)[C@H](O)[C@H](C)O2)Oc2ccc(cc2Cl)[C@H]1O [VANCOMYCIN] | 1.03 |
| CC(C)NCC(O)COc1ccc(CCOCC2CC2)cc1 (stereo not drawn) [BETAXOLOL] | 0.7 |
| CCC1(c2cccc(O)c2)CCCCN(C)C1 (stereo not drawn) [MEPTAZINOL] | 1.4 |
| CCOC(=O)C1=C(C)NC(C)=C(C(=O)OC)C1c1cccc([N+](=O)[O-])c1 (stereo not drawn) [NITRENDIPINE] | 0.25 |
| CCCCNc1cc(C(=O)O)cc(S(N)(=O)=O)c1Oc1ccccc1 [BUMETANIDE] | 0.85 |
| CN(C)CCc1c[nH]c2ccc(C[C@H]3COC(=O)N3)cc12 [ZOLMITRIPTAN] | 2.2 |
| CC(C)NCC(O)COc1cccc2ccccc12 (stereo not drawn) [PROPRANOLOL] | 1.2 |
| Oc1ccc2c3c1O[C@H]1[C@@H](O)CC[C@@]4(O)[C@@H](C2)N(CC2CCC2)CC[C@]314 [NALBUPHINE] | 0.95 |
| CCCCCNC(=N)N/N=C/c1c[nH]c2ccc(OC)cc12 [TEGASEROD] | 0.36 |
| CO/N=C(\C(=O)N[C@@H]1C(=O)N2C(C(=O)O)=CCS[C@H]12)c1csc(N)n1 [CEFTIZOXIME] | 1.68 |
| C[C@H]1C[C@@H]2[C@H]([C@@H](O)C[C@@]3(C)[C@H]2CC[C@]3(O)C(=O)CO)[C@@]2(C)C=CC(=O)C=C12 [METHYLPREDNISOLONE] | 0.3 |

| SMILES | CL renal [mL/min/kg] |
| --- | --- |
| COC(=O)Nc1nc2ccc(C(=O)c3ccccc3)cc2[nH]1 [MEBENDAZOLE] | 0.17 |
| Cc1cc(=O)n(-c2ccccc2)n1C [ANTIPYRINE] | 0.02 |
| CC(=O)[C@]1(O)Cc2c(O)c3c(c(O)c2[C@@H](O[C@H]2C[C@H](N)[C@H](O)[C@H](C)O2)C1)C(=O)c1ccccc1C3=O [IDARUBICIN] | 1.8 |
| CN(C)CCCN1c2ccccc2Sc2ccc(Cl)cc21 [CHLORPROMAZINE] | 0.16 |
| CCOC(=O)C1(c2ccccc2)CCN(C)CC1 [MEPERIDINE] | 0.25 |
| COc1cc2c3cc1Oc1cc(ccc1O)C[C@@H]1c4c(cc(OC)c(O)c4Oc4ccc(cc4)C[C@@H]3N(C)CC2)CC[N+]1(C)C.[Cl-] | 2.14 |
| NC1CCN(c2c(F)cc3c(=O)c(C(=O)O)cn(C4CC4)c3c2Cl)C1 (stereo not drawn) [CLINAFLOXACIN] | 3.2 |
| CC(=O)Oc1ccccc1C(=O)O [ASPIRIN] | 0.24 |
| CCCCc1nc(Cl)c(CO)n1Cc1ccc(-c2ccccc2-c2nn[nH]n2)cc1 [LOSARTAN] | 0.9 |
| Cc1nc2n(c(=O)c1CCN1CCC(c3noc4cc(F)ccc34)CC1)CCCC2 [RISPERIDONE] | 0.18 |
| C[C@@H](O)[C@H]1C(=O)N2C(C(=O)O)=C(S[C@@H]3CN[C@H](C(=O)N(C)C)C3)[C@H](C)[C@H]12 [MEROPENEM] | 2.73 |
| CCO[C@@H](Cc1ccc(OCCc2ccc(OS(C)(=O)=O)cc2)cc1)C(=O)O [TESAGLITAZAR] | 0.01 |
| O=C(O)P(=O)(O)O [FOSCARNET] | 1.68 |
| CCNCC(O)c1cccc(O)c1 (stereo not drawn) [ETILEFRINE] | 3.96 |
| CC(C)(C)NC(=O)[C@H]1CC[C@H]2[C@@H]3CC[C@H]4NC(=O)C=C[C@]4(C)[C@H]3CC[C@]12C [FINASTERIDE] | 0.02 |
| Cn1c(=O)c2[nH]cnc2n(C)c1=O.O [THEOPHYLLINE] | 0.09 |
| CCC1(c2ccccc2)C(=O)NC(=O)NC1=O [PHENOBARBITAL] | 0.02 |
| CN[C@@H]1CCc2[nH]c3ccc(C(N)=O)cc3c2C1 [FROVATRIPTAN] | 1.04 |
| OCCN1C[C@H](O)[C@@H](O)[C@H](O)[C@H]1CO [MIGLITOL] | 1.7 |
| NNc1nncc2ccccc12 [HYDRALAZINE] | 10.8 |
| Cc1cn([C@H]2C=C[C@@H](CO)O2)c(=O)[nH]c1=O [STAVUDINE] | 3.53 |

| SMILES | CL renal [mL/min/kg] |
| --- | --- |
| CCN(CC)CCNC(=O)c1cc(Br)c(N)cc1OC [BROMOPRIDE] | 1.4 |
| CC1(C)S[C@@H]2[C@H](NC(=O)C(c3ccccc3)S(=O)(=O)O)C(=O)N2[C@H]1C(=O)O (stereo partly drawn) [SULBENICILLIN] | 1.3 |
| CN(C)Cc1nnc2n1-c1ccc(Cl)cc1C(c1ccccc1)=NC2 [ADINAZOLAM] | 2.6 |
| CC(C)NCC(O)COc1ccc(COCCOC(C)C)cc1 (stereo not drawn) [BISOPROLOL] | 2.28 |
| c1ccc(C2(N3CCCCC3)CCCCC2)cc1 [PHENCYCLIDINE] | 0.82 |
| Cc1onc(-c2c(F)cccc2Cl)c1C(=O)N[C@@H]1C(=O)N2[C@@H]1SC(C)(C)[C@@H]2C(=O)O [FLOXACILLIN] | 1.56 |
| O.O=P(O)(O)C(O)(Cn1ccnc1)P(=O)(O)O [ZOLEDRONIC ACID] | 0.79 |
| CN1CCN(c2c(F)cc3c(=O)c(C(=O)O)cn(CCF)c3c2F)CC1 [FLEROXACIN] | 1.49 |
| NC12CC3CC(CC(C3)C1)C2 [AMANTADINE] | 4.8 |
| NC(=O)NO [HYDROXYUREA] | 0.54 |
| CC[C@H]1OC(=O)[C@H](C)C(=O)[C@H](C)[C@@H](O[C@@H]2O[C@H](C)C[C@H](N(C)C)[C@H]2O)[C@](C)(OC)C[C@@H](C)C(=O)[C@H](C)[C@H]2N(CCCCn3cnc(-c4cccnc4)c3)C(=O)O[C@]12C [TELITHROMYCIN] | 3.14 |
| CCCCC(=O)N(Cc1ccc(-c2ccccc2-c2nnn[nH]2)cc1)[C@H](C(=O)O)C(C)C | 0.14 |
| C[C@H](Cn1cnc2c(N)ncnc21)OCP(=O)(O)O [TENOFOVIR ANHYDROUS] | 2.7 |
| CC1(C)S[C@@H]2[C@H](NC(=O)[C@H](N)c3ccccc3)C(=O)N2[C@H]1C(=O)O [AMPICILLIN] | 1.2 |
| O=C1Cc2cc(CCN3CCN(c4nsc5ccccc45)CC3)c(Cl)cc2N1 [ZIPRASIDONE] | 0.05 |
| CC(=O)O[C@@]12CO[C@@H]1C[C@H](O)[C@@]1(C)C(=O)[C@H](O)C3=C(C)[C@@H](OC(=O)[C@H](O)[C@@H](NC(=O)OC(C)(C)C)c4ccccc4)C[C@@](O)([C@@H](OC(=O)c4ccccc4)[C@H]21)C3(C)C.O.O.O [DOCETAXEL] | 0.29 |
| CN(C)C(=N)N=C(N)N [METFORMIN] | 7.4 |
| CCCCc1ncc(/C=C(\Cc2cccs2)C(=O)O)n1Cc1ccc(C(=O)O)cc1 [EPROSARTAN] | 0.7 |
| Cc1cccc(C)c1NC(=O)C(C)N (stereo not drawn) [TOCAINIDE] | 0.8 |
| CNS(=O)(=O)Cc1ccc2[nH]cc(CCN(C)C)c2c1 | 3.7 |

Reference: ChEMBL document CHEMBL1151930, “Physicochemical determinants of human renal clearance” (J Med Chem, 2009)
